Data: patent US7189691B2, “Methods and compositions for treating leukemia” (The Administrators of the Tulane Educational Fund, priority 2004, dated 2007)
“Also recorded” adds a separate entry of the source.

Assays:
[1] = tested on: hematopoietic progenitor cells (peripheral blood stem cells); assay: Methylcellulose clonogenic assay; type: cell-based, human; conditions: 100 μg/ml, 72 h incubation; FIG. 4A
Text: PFWT is toxic to several leukemia cell lines raising the possibility that normal hematopoietic cells are also sensitive to the peptide. To verify whether PFWT has any effect on hematopoietic stem cells, standard methylcellulose-based assays were employed to enumerate the colony-forming potential of human peripheral blood and bone marrow stem cells.
Cryopreserved bone marrow and peripheral blood hematopoietic progenitor cells from healthy donors were thawed and diluted with M199 media (Invitrogen) to give a final DMSO concentration of 0.1%. Cells were incubated at room temperature for 2 h for equilibration. Nucleated cells at a concentration of 5×10^5 cells/ml were then incubated with the peptides PFWT or PFmut or DMSO control vehicle for 48 or 72 h. After the incubation period, 400 μl of the cell suspensions were suspended in 3.6 ml MethoCult GF H4434 methylcellulose media containing cytokines (erythropoietin, G-CSF, GM-CSF, stem cell factor, IL-3 and IL-6) (Stem Cell Technologies) and transferred to 25 mm plates with grids. The cells were plated in triplicate and incubated for 2 weeks at 37° C. with 5% CO2 in a humidified incubator. After 2 weeks, the number of colonies (>50 cells) per plate was counted under an inverted light microscope as a measure of progenitor cell viability.

RS4;11 = assay: Annexin-V/PI binding assay (flow cytometry); type: cell-based; conditions: RS4;11, 50 μg/ml
Protocol: (§1) To test the possibility that growth inhibition of t(4;11) leukemia cells exposed to PFWT is the result of apoptotic cell death, annexin-V labeling of the cell membrane of the leukemic cells examined in Example 5 was used to assess apoptosis as follows (Koopman, G., et al., Blood 1994 84: 1415–1420.). Annexin V binding assays were carried out using a Vibrant™ apoptosis kit (Molecular Probes). […] For annexin V-propidium iodide (PI) staining, cells were harvested, washed once with PBS and resuspended in 100 μl annexin binding buffer. 5 μl annexin V conjugated to Alexa Fluor 488 and 2 μl of 100 μg/ml PI were added to the cell suspension and incubated at room temperature for 15 minutes. The cells were then washed once in annexin binding buffer and resuspended in 400 μl annexin binding buffer. These samples were then analyzed by flow cytometry using Coulter benchtop flow cytometer. The cells were excited by a 488 nm wavelength laser beam and the emission was measured using a 530 nm filter for annexin V and a 575 nm filter for PI.

MOLT-4 = assay: Annexin-V/PI binding assay (flow cytometry); type: cell-based; conditions: MOLT-4, 50 μg/ml
Protocol: as §1

MV4-11 = assay: Annexin-V/PI binding assay (flow cytometry); type: cell-based; conditions: MV4-11, 50 μg/ml
Protocol: as §1

AF4-AF9 interaction = molecular target: T1, AF4-AF9 interaction (Homo sapiens, UniProt P42568); assay: Enzyme-linked protein binding assay, GST-AF4(749-775) and biotinylated AF9; conditions: peptide 20 μg/ml; FIG. 2A
T1 construct: made in house; host or cells: GST-AF4 from E. coli; AF9 by coupled in vitro transcription/translation (Promega)
T1 sequence (P42568 211-568): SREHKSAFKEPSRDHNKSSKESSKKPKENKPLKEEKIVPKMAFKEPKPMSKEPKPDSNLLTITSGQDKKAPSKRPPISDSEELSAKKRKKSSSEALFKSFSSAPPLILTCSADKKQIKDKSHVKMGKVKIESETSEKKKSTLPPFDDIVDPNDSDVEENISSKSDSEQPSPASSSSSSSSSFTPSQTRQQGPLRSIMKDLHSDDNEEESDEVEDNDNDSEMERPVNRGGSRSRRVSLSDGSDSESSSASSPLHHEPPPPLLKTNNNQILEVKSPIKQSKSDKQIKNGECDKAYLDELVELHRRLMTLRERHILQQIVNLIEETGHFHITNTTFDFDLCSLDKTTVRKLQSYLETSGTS
Protocol: Next, an enzyme-linked protein binding assay was developed as a potential high throughput tool to semi-quantitatively assess the ability of various compounds to disrupt the AF4-AF9 interaction in vitro (FIGS. 2A and 2B).
GST-AF4 (749–775) SEQ ID NO: 107 was bound to glutathione-coated 96-well plates and incubated with biotinylated AF9 in conjunction with 20 μg/ml of the following peptides: • (a) Pen-[…], a fusion protein of PENETRATIN™ transporter peptide to the amino terminus of […](SEQ ID NO: 110, PFmut), • (b) Pen-[…], a fusion protein of the transporter protein PENETRATIN™ to the amino terminus of […](SEQ ID NO: 2; or PFWT), • (c) […] or […](SEQ ID NO: 111); • (d) […] or […] (SEQ ID NO: 112); • (e) […] or […](SEQ ID NO: 113), or with • (f) DMSO, or • (g) GST-Cx, a control.
The plate was washed and the retention of AF9 was determined by a colorimetric assay using streptavidin-alkaline phosphatase and pNPP as a substrate. […] At this same peptide concentration, PFmut (a) in col. […] The 10 amino acid peptide (d) in col. 6 is the smallest molecule found to have activity in vitro.

| Structure (SMILES) | colony forming potential (colonies >50 cells after 14 days) [1] | % Total apoptotic cells (RS4;11) | % early apoptotic cells (RS4;11) | % Total apoptotic cells (MOLT-4) | % early apoptotic cells (MOLT-4) | % Total apoptotic cells (MV4-11) | % early apoptotic cells (MV4-11) | AF9 binding to GST-AF4 (retention of AF9) (AF4-AF9 interaction) |
| --- | --- | --- | --- | --- | --- | --- | --- | --- |
| CC[C@H](C)[C@H](NC(=O)[C@H](CCCCN)NC(=O)[C@@H](NC(=O)[C@H](Cc1c[nH]c2ccccc12)NC(=O)[C@H](CC(C)C)NC(=O)[C@H](CCCCN)NC(=O)[C@H](CCCCN)NC(=O)[C@H](Cc1c[nH]c2ccccc12)NC(=O)[C@H](CCCCN)NC(=O)[C@H](CCSC)NC(=O)[C@H](CCCNC(=N)N)NC(=O)[C@H](CCCNC(=N)N)NC(=O)[C@H](CC(N)=O)NC(=O)[C@H](CCC(N)=O)NC(=O)[C@H](Cc1ccccc1)NC(=O)[C@H](Cc1c[nH]c2ccccc12)NC(=O)[C@H](CCCCN)NC(=O)[C@@H](NC(=O)[C@H](CCC(N)=O)NC(=O)[C@@H](N)CCCNC(=N)N)[C@@H](C)CC)C(C)C)C(=O)N[C@@H](CC(=O)O)C(=O)N[C@@H](CC(C)C)C(=O)N[C@@H](CC(=O)O)C(=O)N[C@@H](CC(C)C)C(=O)N[C@@H](CC(C)C)C(=O)N[C@@H](CO)C(=O)N[C@@H](CCCNC(=N)N)C(=O)N[C@H](C(=O)N1CCC[C@H]1C(=O)O)C(C)C [PFWT] | neither PFWT nor PFmut have any significant effect; also recorded: does not impair their colony forming potential | 34.64% | 26.18% | 18.8% | 11.64% | 45.3% | 28.42% | almost completely block AF9 binding |
| CC[C@H](C)[C@H](NC(=O)[C@H](CCC(N)=O)NC(=O)[C@@H](N)CCCNC(=N)N)C(=O)N[C@@H](CCCCN)C(=O)N[C@@H](Cc1c[nH]c2ccccc12)C(=O)N[C@@H](Cc1ccccc1)C(=O)N[C@@H](CCC(N)=O)C(=O)N[C@@H](CC(N)=O)C(=O)N[C@@H](CCCNC(=N)N)C(=O)N[C@@H](CCCNC(=N)N)C(=O)N[C@@H](CCSC)C(=O)N[C@@H](CCCCN)C(=O)N[C@@H](Cc1c[nH]c2ccccc12)C(=O)N[C@@H](CCCCN)C(=O)N[C@@H](CCCCN)C(=O)N[C@@H](CC(C)C)C(=O)N[C@@H](Cc1c[nH]c2ccccc12)C(=O)N[C@@H](CCC(=O)O)C(=O)N[C@@H](CCCCN)C(=O)N[C@@H](CO)C(=O)N[C@@H](CC(=O)O)C(=O)N[C@@H](CC(C)C)C(=O)N[C@@H](CC(=O)O)C(=O)N[C@@H](CC(C)C)C(=O)N[C@@H](CC(C)C)C(=O)N[C@@H](CO)C(=O)N[C@@H](CCCNC(=N)N)C(=O)N[C@H](C(=O)N1CCC[C@H]1C(=O)O)C(C)C [PFmut] | neither PFWT nor PFmut have any significant effect | 7.22% | 1.36% | 6.64% | 1.36% | 23.16% | 8.26% | interferes with AF9 binding, but a significant amount of AF9 remains bound in the well |
